From US20240415851A1, “REMODILINS TO PREVENT OR TREAT CANCER METASTASIS, GLAUCOMA, AND HYPOXIA” (The University of Chicago, priority 2019, published 2024)
Entries after “also recorded” stand apart in the source; their conditions may differ. Read-outs that look alike come from different tables or passages of the source.

What was measured:
[1] = system: human lung-derived fibroblasts; experiment: TGFβ-induced myofibroblast transformation (ACTA2, FN1 protein expression); format: cell-based; details: 1 ng/mL TGFβ1; 0, 1, 3, or 10 μM remodilin for 2 d; dose-dependent
Description: FIG. 1 Remodilins inhibit myofibroblast transformation (MFT). Serum deprived human lung-derived fibroblasts were treated with 1 ng/mL TGFβ1 (or not, left lane) and 0, 1, 3, or 10 μM remodilin for 2 d. Four remodilins each inhibited smooth muscle α-actin (ACTA2) or fibronectin-1 (FN1) protein expression (markers of MFT).

[2] = system: MDA-MB-231 cells; experiment: Spheroid invasion into collagen gels; format: cell-based, human; details: 10 µM remodilin; 48 hrs; collagen 2 mg/mL; DMEM 0.5% FBS; vs 0.1% DMSO
Description: FIG. 3 MDA-MB-231 cells were grown into spheroids, then allowed to migrate into collagen gels in DMEM containing 0.5% FBS and remodilin (10 µM remodilin 39 [top row] or remodilin 83 [bottom row]) or diluent (0.1% DMSO) for 48 hrs (representative 48 hr images shown).
(§1) Remodilins 39 and 83 each slowed the invasion of triple negative MDA-MB-231 human breast cancer cells from spheroids into a surrounding collagen gel (FIG. 3), and also slowed the serum-directed invasion MDA-MB-231-derived BM1 cells through Matrigel-coated transwells (FIG. 4). Remodilins 39 and 83 also slowed the migration of MDA-MB-231 cells in a scratch wound healing assay (FIG. 5).

[3] = system: MDA-MB-231-derived BM1 cells; experiment: 10% FBS-directed invasion through Matrigel-coated transwell membrane; format: cell-based, human; details: dose-dependent; n=3/condition
Excerpt: FIG. 4 Remodilins 39 and 83 inhibited 10% FBS-directed invasion migration of MDA-MB-231-derived BM1 cells through a Matrigel-coated transwell mem-brane, in a dose-dependent fashion. Mean+SEM shown; n=3/condition. **P<0.01; ***P<0.001; ****P<0.0001.
as §1

[4] = system: MDA-MB-231 cells; experiment: Scratch wound healing migration assay; format: cell-based, human; details: dose-dependent; 1, 3, 10 uM; n=8 wells/condition
Description: Mean+SD shown; n=8 wells/condition. P<0.0001 for 1, 3, & 10 uM remodilin 39 vs DMSO (control) by 2-way ANOVA/Dunnett's.
as §1

[5] = system: MDA-MB-231 cells; experiment: Alamar blue assay (growth inhibition, cytotoxicity); format: cell-based, human; details: concentrations to at least 10 uM
[6] = In vivo PK and oral bioavailability, single dose; details: mouse, plasma, wild-type mice, 10 mg/kg single dose
Description: (§2) The in vivo bioavailability, plasma half-life, Cmax, and area under the curve (AUC) were determined after administration of single 10 mg/kg doses of remodilins 39 and 83 to mice (Table 1). Selected tissue concentrations of remodilins 39 and 83 after single oral doses of 10 or 50 mg/kg (FIG. 6). The PK properties of these remodilins differ substantially.

[7] = Tissue and plasma concentrations after single oral doses; format: in vivo; details: mice
Description: FIG. 6 Tissue and plasma remodilin concentrations after single oral doses (filled circles 50 mg/kg; open circles-10 mg/kg). […] The greater oral bioavailability, longer half-life, and inter-tissue variation of remodilin 83 concentration are readily evident. Mean+SEM shown; n=3/condition.
as §2
(§3) PK was re-evaluated after 14 days of intraperitoneal (IP) or oral BID dosing. […] Plasma levels after single or 15 consecutive once-daily IP 10 mg/kg doses of remodilin 39 were examined (FIG. 8). The plasma concentration of 10 μM remodilin 39 corresponds to 5314 ng/mL.

[8] = Tissue concentrations after 14 d BID dosing (IP or PO); format: in vivo; details: for concentration at 14 days: liver, lung, intraperitoneal
Description: Mean+SEM shown; n=3/condition. Dotted lines show concentration corresponding to 10 μM.
as §3
(§4) In the experiments corresponding to FIG. 7, remodilin 83 was dissolved in 20% Solutol in PBS.

[9] = Lipophilicity and dissolution in vehicles; format: physicochemical
Description: as §4

[10] = system: HIF1α; experiment: TGFβ-induced HIF1α accumulation in fibroblasts; format: cell-based, human; details: 48 hrs TGFβ treatment
Excerpt: (§5) FIG. 12A-12B Remodilins inhibit accumulation of hypoxia-inducible factor-1 alpha (HIF1α) protein. FIG. 12A Effect of remodilin 83 on TGFβ-induced phosphorylation of AKT and ERK1/2 and TGFβ-induced HIF1α accumulation in human fibroblasts. FIG. 12B Both remodilins 39 and 83 inhibited HIF1α accumulation in HEK293 cells exposed to 6 hrs of hypoxia (1% 02).
(§6) The influence of remodilin 83 on HIF-1α accumulation in TGFβ-treated fibroblasts was examined. […] Similarly, both remodilins 39 and 83 inhibited HIF1α accumulation in HEK293 cells exposed to 6 hrs of hypoxia (1% O2; FIG. 12B). […] N—normoxia; H—hypoxia.

[11] = system: AKT; experiment: TGFβ-induced AKT phosphorylation in fibroblasts; format: cell-based; details: human fibroblasts
Excerpt: as §5, §6

[12] = system: ERK1/2; experiment: TGFβ-induced ERK1/2 phosphorylation in fibroblasts; format: cell-based; details: human fibroblasts
Excerpt: as §5, §6

[13] = system: HIF1α; experiment: Hypoxia-induced HIF1α accumulation in HEK293 cells; format: cell-based; details: 6 hrs steady hypoxia (1% oxygen); 3 μM or 10 µM
Excerpt: as §5, §6

[14] = system: HIF1α; experiment: Hypoxia-induced HIF1α accumulation in HEK293T cells (Western blot); format: cell-based; details: 6 hrs steady hypoxia; 3 or 10 μM
Excerpt: FIG. 14A-14B Remodilins' effects on hypoxia-induced accumulation of HIF1α. […] FIG. 14B HIF1α was absent in cells ex-posed to 6 hrs normoxia (N).
OSA is a chronic, morbid disease affecting about 10% of the adult population, in which frequent episodes of upper airway collapse obstruct inspiratory airflow and cause IH. These episodes of IH disrupt sleep but perhaps more importantly accelerate multiple cardiometabolic abnormalities, including systemic hypertension, cardiovascular disease, stroke, and abnormal glucose metabolism. Therefore, remodilins were examined for their ability on inhibit hypoxia-induced accumulation of HIF1α, a transcription factor that mediates many of the adverse responses to IH.

[15] = system: A549 lung adenocarcinoma cells; experiment: Oxygen consumption rate and extracellular acidification rate; format: cell-based; details: treated at time=30 min
Description: FIG. 13A-13B Effect of remodilin 83 on oxygen consumption rate (OCR) and extracellular acidification rate (ECAR). FIG. 13A A549 cells were treated with remodilin 83 (open circles) or its vehicle (filled circles) at time=30 min, and oxygen consumption rate (OCR) was continuously measured over time. FIG. 13B A549 cells were treated with remodilin 83 (open circles) or its vehicle (filled circles) at time=30 min, and extracellular acidification rate (ECAR) was measured continuously over time. Cells were sequentially treated with oligomycin (ATP synthase inhibitor), FCCP (uncoupler) and antimycin A/rotenone (A+R) (complex III and I inhibitor).
A549 cells were treated with remodilin 83 (open circles) or its vehicle (filled circles) at time=30 min, and oxygen consumption rate (OCR) and extracellular acidification rate (ECAR) were measured continuously over time. Cells were sequentially treated with oligomycin (ATP synthase inhibitor), FCCP (uncoupler) and antimycin A/rotenone (A+R) (complex III and I inhibitor).

[16] = system: Sprague Dawley rats; experiment: Intermittent hypoxia (IH)-induced systemic hypertension; format: in vivo
Description: FIG. 15A-15B Remodilin's effect on hypertension and weight. […] N=2/group; DO-Day 0 (prior to IH), D11-Day 11.
Remodilins were tested for their ability to inhibit the systemic hypertension induced in rats subjected to IH in vivo.

CC1CN(S(=O)(=O)c2ccc(NC(=O)c3ccc(Br)c(I)c3)cc2)CCN1 (centres unmarked) [Remodilin 83, 4-Bromo-3-iodo-N-(4-((3-methylpiperazin-1-yl)sulfonyl)phenyl)benzamide]
TGFβ-stimulated transformation of human lung-derived fibroblasts to myofibroblast phenotype (ACTA2 or FN1 protein expression) [1]: blunt TGFβ-stimulated transformation | invasion of MDA-MB-231 cells from spheroids into collagen gels [2]: inhibited invasion | 10% FBS-directed invasion migration of BM1 cells through Matrigel-coated transwell membrane [3]: inhibited | migration of confluent MDA-MB-231 cells into circular scratch wound [4]: inhibited migration | growth inhibition or cytotoxicity by Alamar blue assay [5]: Neither remodilin is growth-inhibitory or cytotoxic | bioavailability ([6]; po): 22% | AUC [6]: 1300 ng·h/mL | Cmax [6]: 380 nM | half-life [6]: 504 min | maintenance of tissue or plasma levels above 10 μM throughout the day ([7]; single oral doses): did not maintain tissue or plasma levels above 10 μM throughout the day | tissue distribution ([7]; single oral doses of 10 or 50 mg/kg (FIG. 6)): highly preferentially distributed to the lung | variation of tissue concentrations over the 12-hour dosing period, IP ([8]; after 14 d BID dosing, given IP): relatively steady within each tissue | variation of tissue concentrations over the 12-hour dosing period, PO ([8]; after 14 d BID dosing, given PO): greater variation over time | Brain levels ([8]; after 14 days BID dosing): low | concentration at 14 days ([8]; female, Balb/c, mouse, heart, kidney, 40 mg/kg BID IP, 14 days, read-out: levels in liver, heart, lung, and kidney): ~10 µM | mortality or gross clinical evidence of toxicity ([8]; mouse, in vivo): no mortality or gross clinical evidence of toxicity | concentration at 14 days ([8]; mouse, 14-day 40 mg/kg BID IP in 20% Solutol, female Balb/c mice, read-out: liver and lung concentrations): < 10 µM | lipophilicity / lipid solubility [9]: lipophilic; also recorded: highly lipid soluble | dissolution in 20% Solutol or DMSO ([9]; 20% Solutol or DMSO): readily dissolved | TGFβ-induced HIF1α accumulation in human fibroblasts [10]: this response was absent | TGFβ-induced AKT phosphorylation [11]: inhibited TGFβ-induced AKT phosphorylation | TGFβ-induced ERK1/2 phosphorylation [12]: not TGFβ-induced ERK1/2 phosphorylation | HIF1α accumulation in HEK293 cells exposed to hypoxia [13]: blunted HIF1α accumulation substantially | HIF1α accumulation in HEK293T cells exposed to hypoxia [14]: inhibit the accumulation of HIF1α | extracellular acidification rate (ECAR), marker of glycolysis [15]: decreases both mitochondrial respiration and glycolysis | oxygen consumption rate (OCR), mitochondrial respiration [15]: decreases both mitochondrial respiration and glycolysis | systemic hypertension induced by 10 days of IH (8 hrs/day) ([16]; 20 mg/kg BID IP, N=2/group): blocks the systemic hypertension | health as judged by clinical observation or weight gain ([16]; D0 to D11): no obvious effect on health | blood pressure in rats unexposed to IH ([16]; N=2/group): little effect on blood pressure
